Assay results as given in article PMC11613437, “Prioritization of Eleven-Nineteen-Leukemia Inhibitors as Orally Available Drug Candidates for Acute Myeloid Leukemia” (Journal of Medicinal Chemistry, 2024).
Read-outs that look alike come from different tables or passages of the source.

Columns and labels:
NLuc-ENL YEATS = biological target: T1, NLuc-ENL YEATS (Homo sapiens, UniProt Q03111); assay: ENL-NanoBRET inhibitor competitive assay; type: cell-based; details: HEK293T cells stably expressing NLuc-ENL YEATS, 1 μM Tracer 2, 2 h; mean ± SD, n = 3
T1 construct: DNA encoding the ENL YEATS domain (aa 1–148) was cloned into an NLuc containing plasmid; expressed in transfected cells
T1 sequence (Q03111 1-148): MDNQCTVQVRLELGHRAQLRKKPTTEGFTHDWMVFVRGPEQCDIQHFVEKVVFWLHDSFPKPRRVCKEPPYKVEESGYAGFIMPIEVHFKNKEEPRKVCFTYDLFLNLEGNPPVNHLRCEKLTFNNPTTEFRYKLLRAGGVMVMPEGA
Protocol: Approximately 1.8 × 10^4 HEK293T cells (100 μL) stably expressing NLuc-ENL YEATS were seeded into a white nonbinding 96-well assay plate and incubated overnight at 37 °C in a humidified 5% CO2 atmosphere. After removal of the medium, the cells were added with a tracer (with or without excess of unlabeled compound) in the Opti-MEM with 0.1% DMSO. After incubation at 37 °C for 2 h the assay plate was equilibrated at room temperature for 15 min. For BRET detection, the NanoGlo Substrate and the extracellular NanoLuc inhibitor (Promega, N2160) were diluted with Opti-MEM as described in protocol to afford detection solution. 50 μL of the detection solution was added per well and the plate was incubated for 3 min at room temperature. The donor emission was measured at 450 nm and the acceptor emission at 610 nm using a BioTek SYNERGY neo2 multimode reader. The BRET ratio was calculated according to the following formula: BRET ratio = [(acceptorsample/donorsample) – (acceptorno-tracer control/donorno-tracer control)] × 1000.
Sample procedures were followed for cell seeding as described in the previously described tracer affinity assay. After removal of the medium, the cells were added with a tracer in the medium (1.1 μM, 100 μL) and varied concentrations of a test compound in 0.1% DMSO (10 μL). The plate was thoroughly mixed on an orbital shaker for 15 s at 900 rpm. Then the cells were incubated at 37 °C, 5% CO2 for 2 h for BRET ratio detection as described previously.

PK analysis in mice = type: in vivo; details: plasma; for half-life at 24 h: read-out: t1/2 (h), PO (converted)
Protocol: Male CD-1 mice were used in the PK study. A compound was dissolved in a mixed solution containing 75% PEG300 and 25% D5W (5% dextrose in distilled water) or another solution containing 0.5% methyl cellulose and 0.5% Tween 80 in water at indicated dosage for i.v. and p.o. administrations, respectively. Three mice were used for each administration. Blood samples were taken from a vein at different time points up to 24 h after dosing, collected in tubes coated with an anticoagulant, and centrifuged at 1.5 × 10^4 g for 5 min to obtain plasma samples. Acetonitrile-containing internal standard (Labetalol, 100 ng/mL) was added to the plasma to precipitate proteins. The samples were subjected to vortex mixing for 10 min and then centrifugation at 4 °C for 15 min at 3220g. Then clear supernatants were analyzed by HPLC-MS/MS.

MOLM-13 and MV4-11 cells = assay: Cell cycle analysis; type: cell-based; details: 72 h treatment
Protocol: For cell cycle analysis, 5 × 10^6 cells were cultured at 2 mL/well in a 6-well plate treated in a ratio of 1:1000 with compound stocks in DMSO or 1:1000 with DMSO in triplicate. Cell cycle staining was performed by using a cell cycle analysis kit (Abcam, ab287852) and treated according to the protocol provided. The signal was analyzed by flow cytometry and the cytometry results were analyzed by CytExpert software.

MV4-11 cells = assay: Anti-proliferation assay, MV4-11; type: cell-based; details: Homo sapiens, MV4-11, 336 h, approximately 2 weeks, read-out: inhibition of MV4-11 cell proliferation
Protocol: Cell proliferation assays were carried out in a 96-well tissue culture plate at 2 × 10^4 cells/well for all cell lines except in 200 μL with a compound added as 1:1000 dilution of DMSO stocks in triplicate. Culture density was determined every 3–4 days using the countess automated cell counter, after which 2 × 10^4 live cells were reseeded in fresh media and compound. The cumulative cell count was achieved by back calculation.

[1] = Log D at pH 7.4 (chromatographic procedure); type: physicochemical; details: n-octanol / aqueous buffer pH 7.4, pH 7.4
Protocol: Log D at 7.4, which is a partition coefficient between n-octanol and aqueous buffer pH 7.4 of the compounds was measured on the chromatographic procedure whose condition was developed based on a published method.[35]

ENL YEATS = biological target: T2, ENL YEATS (Homo sapiens, UniProt Q03111); assay: AlphaScreen assay with biotinylated ENL-S1 peptide; details: inhibition of ENL YEATS binding to ENL-S1 peptide; mean ± SD, n = 3; read-out: Alpha IC50 (nM) for ENL YEATS
T2 construct: final concentrations of 100 nM His-ENL YEATS, 100 nM Biotin-ENL-S1
T2 sequence (Q03111 1-138 limits assumed): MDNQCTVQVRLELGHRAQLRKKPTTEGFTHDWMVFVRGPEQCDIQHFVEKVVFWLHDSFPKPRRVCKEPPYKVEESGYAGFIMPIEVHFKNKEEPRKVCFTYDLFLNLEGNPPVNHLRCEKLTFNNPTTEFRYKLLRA
Protocol: The AlphaScreen assay was carried out in 384-well plates. Manual assay setup was performed in a 40 μL reaction buffer (50 mM HEPES pH 7.4, 100 mM NaCl, 0.1% bovine serum albumin, and 0.05% CHAPS) with final concentrations of 100 nM His-ENL YEATS, 100 nM Biotin-ENL-S1, and 20 μg/mL of AlphaScreen donor and acceptor beads. The protein, peptide, and compounds were mixed and incubated for 1 h at room temperature and then incubated for 30 min in dark after adding the α beads. AlphaScreen-signals were detected by a multimode microplate reader (BioTeK Synergy Neo2) equipped with an Alpha-laser (PerkinElmer).

[2] = mouse, male CD-1 mice, PO 20 mg/kg
[3] = mouse, male CD-1 mice, PO 20 mg/kg, read-out: AUC0–inf, oral

## CC(C)C1CCN1Cc1ccc(CNC(=O)c2ccc3nncn3c2)cc1 (stereo not shown) [inhibitor 13]
NLuc-ENL YEATS
  IC50: 4290 nM
PK analysis in mice; mouse, male CD-1 mice, IV 20 mg/kg, read-out: t1/2, IV (converted)
  half-life: 1.05 ± 0.03 h
PK analysis in mice; [2]
  Cmax at 24 h: 2080 ng/mL
  half-life at 24 h: 0.84 h
PK analysis in mice; [3]
  AUC(0-inf) at 24 h: 5140 ng·h/mL
MOLM-13 and MV4-11 cells
  cell cycle: G1 phase: increase in the G1 phase
MV4-11 cells
  inhibition at 1 µM: 41%
MV4-11 cells; 10 μM
  inhibition at 10 µM: 75%
[1]
  chromatographic logD: 0.31
ENL YEATS
  IC50: 1260 ± 128 nM

## CC(C)[C@H]1CCN1Cc1cc2cnc(NC(=O)c3ccc4nncn4c3)cc2[nH]1 [SR-C-107 (R), (R)-N-(2-((2-Isopropylazetidin-1-yl)methyl)-1H-pyrrolo[3,2-c]pyridin-6-yl)-[1,2,4]triazolo[4,3-a]pyridine-6-carboxamide]
NLuc-ENL YEATS
  IC50: 590 nM
PK analysis in mice; male, CD-1, mouse, mice, PO 20 mg/kg, corresponds to 285 ng/mL, read-out: oral Cmax expressed as effective concentration
  Cmax: 750 nM
PK analysis in mice; [3]
  AUC(0-inf): 808 ng·h/mL
PK analysis in mice; mouse, male CD-1 mice, PO 20 mg/kg, read-out: Cmax, oral
  Cmax: 285 ng/mL
PK analysis in mice; [2]
  half-life at 24 h: 1.41 h
MOLM-13 and MV4-11 cells
  cell cycle: G1 phase: increase in the G1 phase
MV4-11 cells
  inhibition at 1 µM: ~70%
[1]
  chromatographic logD: 0.97
ENL YEATS
  IC50: 40 nM
